This passage reports IC50, inhibition and C481S mutation-resistance results from US10793575B2, “Oxoisoquinoline derivatives” (CARNA BIOSCIENCES, INC., priority 2016, dated 2020).

Experiment [1] deals with OCI-Ly10 cells. Kind of experiment: Proliferation-Inhibitory Test Against Diffuse Large-Cell B-Cell Lymphoma OCI-Ly10 Strain. The class given is cell-based. The conditions noted are these: Homo sapiens, 96 hours, alamarBlue. An outline of the steps:
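Proliferation was read by alamarBlue after a 96-hour incubation. Final compound concentrations spanned 0.9 nM to 30000 nM with 0.3% DMSO. Cells were seeded at 20000 per well in IMDM containing 20% fetal bovine serum under 5% CO2.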

Experiment [2] deals with wild type BTK [BTK(WT)] (Homo sapiens (Human), UniProt Q06187). Kind of experiment: C481S Mutant BTK Inhibitory Activity Test, wild type BTK (mobility shift assay). The class given is biochemical. The note with it: 120 μM ATP.
Sequence of wild type BTK [BTK(WT)] (Q06187 whole entry): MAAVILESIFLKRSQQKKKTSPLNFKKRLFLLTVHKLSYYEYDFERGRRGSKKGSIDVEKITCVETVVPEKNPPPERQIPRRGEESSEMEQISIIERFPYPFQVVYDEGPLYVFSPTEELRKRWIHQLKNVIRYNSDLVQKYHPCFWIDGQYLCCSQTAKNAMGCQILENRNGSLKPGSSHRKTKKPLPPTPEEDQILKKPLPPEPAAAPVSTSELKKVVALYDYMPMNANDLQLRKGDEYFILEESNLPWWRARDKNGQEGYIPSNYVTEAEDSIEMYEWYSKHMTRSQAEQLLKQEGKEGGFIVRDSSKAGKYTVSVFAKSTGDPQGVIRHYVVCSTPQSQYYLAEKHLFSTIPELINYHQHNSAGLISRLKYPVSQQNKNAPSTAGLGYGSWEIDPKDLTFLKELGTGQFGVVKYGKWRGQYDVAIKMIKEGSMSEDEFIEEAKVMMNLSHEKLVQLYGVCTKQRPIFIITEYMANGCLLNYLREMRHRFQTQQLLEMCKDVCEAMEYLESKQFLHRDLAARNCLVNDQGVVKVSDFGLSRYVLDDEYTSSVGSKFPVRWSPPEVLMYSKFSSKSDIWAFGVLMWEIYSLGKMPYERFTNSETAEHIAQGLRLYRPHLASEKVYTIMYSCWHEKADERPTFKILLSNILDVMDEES
For experiment [3], the target named is BTK (Homo sapiens (Human), UniProt Q06187). The experiment is described as follows: Intracellular BTK Auto-Phosphorylation Activity Inhibition Test in Ramos cells. The conditions noted are these: test compound 0.03 μM, anti-IgM stimulation, pY223, read-out: Inhibitory Activity on BTK-phosphorization. The class given is cell-based. As to the method: Ramos cells (2G6.4C10, ATCC No. CRL-1923) were cultured in a T75 flask containing RPMI-1640 medium (GIBCO, # A10491-01) supplemented with 10% FBS (AusGene) and 1% penicillin-streptomycin (Nacalai Tesque, Inc.) (hereinafter referred to as growth medium) in a 5% CO2 incubator.
Sequence of BTK (Q06187 whole entry): as above
The cultured Ramos cells were diluted to a cell density of 7.5×10^6 cells/mL with a serum-free RPMI-1640 (hereinafter referred to as medium) and kept at 37° C. for 45 minutes. The cell suspension was dispensed in 1 mL aliquots into 2.0 mL tubes. A 0.03 mM solution of the test substance in DMSO was diluted with the medium to make a 0.09 μM test compound solution, 500 μL of which was then added to the tubes and the incubation was conducted at 37° C. for 1 hour in the presence of the test compound at a final concentration of 0.03 μM. Thereafter, the anti-IgM antibody (Invitrogen, H15100) which had been diluted with the medium was added at a final concentration of 10 μg/mL, and the incubation was conducted at 37° C. for 10 minutes.
To the pellets obtained by recovering the cells via centrifugation, 100 μL of a lysis buffer [RIPA Buffer(×1)(Cell Signaling Technology, Inc.) supplemented with 1% Phosphatase inhibitor Cacktail 3 (Sigma Corporation, No. P0044), 1% Phosphatase inhibitor Cacktail (Nacalai Tesque, Inc., No. 07575) and 1 mM phenylmethylsulfonyl fluoride (PMSF)] was added and stirred gently and then allowed to stand for 10 minutes. The supernatant was recovered by centrifugation (15,000 rpm, 15 minutes) and the protein level was quantified. The portion was mixed with the SDS-sample buffer, allowed to react for 5 minutes at 95° C. to denature the protein, thereby obtaining a sample solution. Each 5 μL of the sample solutions was applied to each well containing a 5 to 20% gradient acrylamide gel (Nacalai Tesque, Inc., No. 13064-04) and electrophoresis was conducted. Thereafter, iBlot gel transfer system (Life Technologies Corporation) was used to transfer the proteins in the gel onto a PVDF membrane.
The PVDF membrane after transfer was blocked with 2% ECL prime blocking Reagent (GE Healthcare) and thereafter the reaction was conducted overnight at 4° C. using anti-BTK mouse antibody (BD transduction laboratory, No. 611116) or anti-phosphorylated BTK rabbit antibody (pY223, EPITOMICS, No. 2207-1) as a primary antibody. The unreacted primary antibody was washed with a TBST buffer (10 mM Tris-HCl (pH 7.5), 150 mM NaCl, 0.1% Tween 20) and then the reaction was conducted for 1 hour at room temperature in a TBST buffer supplemented with 2% ECL prime blocking Reagent using HRP-labeled anti-mouse IgG horse antibody (Cell Signaling Technology, No. 7076) or anti-rabbit IgG goat antibody (Cell Signaling Technology, No. 7074) as a secondary antibody. After washing the unreacted secondary antibody with the TBST buffer, Chemi-Lumi One Super (Nacalai Tesque, Inc.) was used to conduct a reaction in accordance with the attached protocol, and then the respective bands as chemiluminescences were detected with a CCD camera (GE Healthcare ImageQuant LAS 500). […] Each phosphorylated BTK band was corrected based on the total BTK.
The intracellular BTK autophosphorylation inhibiting activity was indicated with the mark “***” when 90% or more, with the mark “**” when 70% or more and less than 90%, and with the mark “*” when 50% or more and less than 70%.

Experiment [4] deals with C481S mutant BTK [BTK(C481S)] (Homo sapiens (Human), UniProt Q06187, C481S). The experiment is described as follows: C481S Mutant BTK Inhibitory Activity Test (mobility shift assay). The format is biochemical. The conditions noted are these: for IC50: C481S mutant BTK, 100 μM ATP; for C481S mutation-resistance: IC50[BTK(C481S)]/IC50[BTK(WT)].
Sequence of C481S mutant BTK [BTK(C481S)] (Q06187 whole entry C481S): as the sequence (Q06187 whole entry) above, with C481S counted along it
In experiment [5] the target is dephosphorylated BTK (Homo sapiens (Human), UniProt Q06187). Kind of experiment: BTK Activity Inhibition Test (mobility shift assay). The class given is biochemical. The conditions noted are these: 200 μM ATP, read-out: Inhibitory Activity on BTK. An outline of the steps: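 Biotinylated human BTK was dephosphorylated with λ phosphatase and assayed by mobility shift, with FITC-SRCtide as substrate in 20 mM HEPES pH 7.5, 0.01% Triton X-100 and 2 mM DTT. The substrate mix held 4 μM substrate, 20 mM MgCl2 and 200 μM ATP, and the enzyme solution held 0.46 nM BTK (stock levels, not final). After 2 h at room temperature, % inhibition was derived from P/(P+S) and IC50 by log-concentration regression.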
Sequence of dephosphorylated BTK (Q06187 whole entry): as the sequence (Q06187 whole entry) above

Each structure is given as a SMILES string.

As for `Nc1nc(-c2cccc(-n3ccc4cc(C5CC5)cc(F)c4c3=O)c2CO)c2nc(-c3ccccc3)[nH]c2n1` [Example 2, 2-[3-(2-amino-8-phenyl-9H-purin-6-yl)-2-(hydroxymethyl)phenyl]-6-cyclopropyl-8-fluoroisoquinolin-1(2H)-one], the IC50 was 68000 pM in experiment [1], 970 pM in experiment [2], 990 pM in experiment [4] and < 10000 pM in experiment [5]. For the same molecule, in experiment [3], the inhibition at 0.03 µM was ≥ 90%. Besides, the C481S mutation-resistance in experiment [4] was 1.0.

For the molecule `Nc1nc(-c2cccc(-n3ccc4cc(C5CC5)cc(F)c4c3=O)c2CO)c2cc(C3=CCN(C4COC4)CC3)[nH]c2n1` [Example 23, 2-(3-{2-amino-6-[1-(oxetan-3-yl)-1,2,3,6-tetrahydropyridin-4-yl]-7H-pyrrolo[2,3-d]pyrimidin-4-yl}-2-(hydroxymethyl)phenyl)-6-cyclopropyl-8-fluoroisoquinolin-1(2H)-one], the IC50 is 20000 pM in experiment [1], 460 pM in experiment [2], 990 pM in experiment [4] and < 10000 pM in experiment [5]. Further, the inhibition at 0.03 µM in experiment [3] was ≥ 90%. Moreover, the C481S mutation-resistance in experiment [4] was 2.2.

As to `Cn1cc(-c2cc3c(-c4cccc(-n5ccc6cc(C7CC7)cc(F)c6c5=O)c4CO)nc(N)nc3[nH]2)cn1` [Example 13, 2-{3-[2-amino-6-(1-methyl-1H-pyrazol-4-yl)-7H-pyrrolo[2,3-d]pyrimidin-4-yl]-2-(hydroxymethyl)phenyl}-6-cyclopropyl-8-fluoroisoquinolin-1(2H)-one], the IC50 in experiment [1] is 27000 pM; in experiment [2] it was 490 pM; in experiment [4] it was 600 pM; in experiment [5] it was < 10000 pM. The inhibition at 0.03 µM in experiment [3] was ≥ 90%. Further, the C481S mutation-resistance in experiment [4] is recorded as 1.2.

Turning to `CN1CCN(Cc2ccc(-c3cc4c(-c5cccc(-n6ccc7cc(C8CC8)cc(F)c7c6=O)c5CO)nc(N)nc4[nH]3)cc2)CC1` [Example 8, 2-[3-(2-amino-6-{4-[(4-methylpiperazin-1-yl)methyl]phenyl}-7H-pyrrolo[2,3-d]pyrimidin-4-yl)-2-(hydroxymethyl)phenyl]-6-cyclopropyl-8-fluoroisoquinolin-1(2H)-one], the IC50 in experiment [1] was 4000 pM; in experiment [2] it was 330 pM; in experiment [4], 430 pM; in experiment [5] it was < 10000 pM. The inhibition at 0.03 µM in experiment [3] was ≥ 90%. Besides, the C481S mutation-resistance in experiment [4] was determined as 1.3.
